One test concerns HSC. Description: CRU assay (competitive repopulating units), primary and secondary. It counts as in vivo, mice. How it is done: CD45.1^+45.2^+-recipient mice were given a split dose of 550 Rads (x-ray source, RS2000-RAD source technologies, inc.) 4 hours apart for a lethal total dose of 1100 Rads. WBM (5×10^5) cells from 3AC (CD45.2) treated mice were competed with WBM cells from vehicle (CD45.1) treated mice and injected retro-orbitally into CD45.1^+45.2^+ hosts. PBMC multi-lineage reconstitution was evaluated every month post-transplant for 4 months. Transplanted mice were euthanized and serially transplanted to determine self-renewal capacity. Repopulating Units (RU) determination was previously decribed.^15 Briefly, RU=(C×CD45.2 repopulation %)/(100−CD45.2 repopulation %) where C=10^5 competitor cells.^6
Normal Repopulating units (RU) are calculated based on total number of competitor cells transplanted. Due to the expansion in the bone marrow compartment of SHIPi treated mice, we calculated the absolute RU numbers based on RU output determined by CRU assay and total BM cellularity. Total BM cellularity was determined via hemacytometer (BioRAD, TC20 cell counter) based on a total BM cells obtained from an intact set of femurs and tibias for each mouse in the study. Absolute RU=(Total BM cellularity/5×10^5)×RU.

The next test concerns PDGFRα+CD51+ MSC. In words: In vivo MSC immunophenotyping by flow cytometry. The arrangement: species or system mice. As to conditions: K118 10 mg/kg i.p. 5 days, vs H2O. How it is done:
PDGFRα^+CD51^+ MSC were detected using methods and reagents as described by Iyer et al.^8 Femurs, tibias, humeri, ulnas, radii, and pelvis were dissected; the bone fragments were cleaned, cut into tiny pieces, and then crushed using a mortar and pestle. The bone chips were then washed several times in HBSS supplemented with 2% heat-inactivated FBS (HBSS/2% HI-FBS) and HBSS only, and then spun at 350×g for 5 mins. The pellet was re-suspended in 3 mg/mL type I collagenase (Worthington) and 15 μg/mL DNAase (Sigma, St. Louis, Mo.) dissolved in HBSS and incubated at 37° C. for 30 min at 110 rpm, this step was repeated twice. Following incubation, mononuclear cells were obtained using a Ficoll gradient ([…] and Histopaque-1077; Sigma, St. Louis, Mo.), and were then used for further analysis. Cells were stained with antibodies as described in Iyer et al.^8

The next test concerns MSC (CFU-F). In words: Colony forming unit (CFU-F) assay on BM cells of treated mice. The class given is in vivo. To be noted: K118 10 mg/kg i.p. 5 days, vs H2O. How it is done:
Primary whole BM cells (adherent+non-adherent) were plated in 60-mm plates (triplicates, 3×10^6 cells per plate) in CFU-F growth media: DMEM, Mesencult Serum (Stem Cell Technologies) with 1% penicillin-streptomycin-glutamine. Cells were cultured for approximately 7 days, after which cells were fixed with 70% ethanol and stained for alkaline phosphatase activity using the Leukocyte Alkaline Phosphatase Kit (Sigma) and counter-stained with neutral red (Sigma). Colonies (ALP^+ cells/colonies) were counted using the Software program “Image J” (National Institutes of Health Research Services Branch).

Another test relates to immunoregulatory cells. Description: Preliminary oral K118 study: immunoregulatory cells. The class given is in vivo, wt C57BL/6 mice. To be noted: K118 orally 10 mg/kg in water. How it is done:
K118 was administered in water, and in wt C57BL/6 mice.

Take `C[C@@]12CCC[C@H]1[C@@H]1CC[C@H]3C[C@@H](N)CC[C@]3(C)[C@H]1CC2.Cl` [K118, 3β-amino-5α-androstane hydrochloride]: in the test with HSC (K118 treated vs H2O treated donors), the “absolute CRU numbers” value is “significant increase”. In addition, the CRU activity entry in the test on HSC (primary CRU, WBM of K118 treated vs H2O treated mice) is listed as “significant increase”. Also, the “MSC numbers in BM” value with PDGFRα+CD51+ MSC is recorded as “significant expansion”. Besides, the “frequency of CFU-F in BM” value in the test with MSC (CFU-F) is “significantly increased frequency”. Moreover, the neutrophil numbers entry in the test on immunoregulatory cells is “trend for increased”. The “frequency of natural T regulatory cells (nTreg, CD4+CD25+FoxP3+)” value in the test with immunoregulatory cells (mesenteric lymph node (mLN)) is given as “Significant increases”. In the test with immunoregulatory cells (spleen), the “frequency of myeloid derived suppressor cells (MDSC, Gr1+Mac1+)” value is reported as “significant increase” and the “frequency of natural T regulatory cells (nTreg, CD4+CD25+FoxP3+)” value is given as “Significant increases”.

Values taken from US20200129523A1, “SHIP INHIBITION TO INDUCE EXPRESSION OF GRANULOCYTE COLONY STIMULATING FACTOR IN A SUBJECT” (THE RESEARCH FOUNDATION FOR THE STATE UNIVERSITY OF NEW YORK, priority 2014, published 2020).
